According to patent publication US6211250A, “Percutaneous delivery system” (Soltec Research Pty Ltd., priority 1996, dated 2001):
“Also recorded” adds a separate entry of the source.

Key:
Candida albicans = settings: result in words
Description: The gels and cream were applied to round glass cover slips of 5 cm^2 each. The application rate for all products was 5 mg/cm^2.
After drying, the coated side of the slides were placed on MEA plates which had been previously seeded with a culture of C. albicans. The plates were incubated at 37° C. for 72 hours. The zone of inhibition was measured around the test slides at the end of the incubation period. Furthermore the slides were removed and an assessment of the growth of the test organism was made in the contact zone with the slide. All tests were performed in duplicate.

[1] = In vitro skin diffusion through shed snake skin in horizontal flow-through diffusion cells; format: in vitro ADME, Children's Python; settings: result in words
From the text: The Children's Python shed snake skin was obtained during natural shedding and the dorsal skin was used. Shed snake skin has shown to be a suitable model membrane for human skin by Itoh, et al., Use of Shed Snake Skin as a Model Membrane for In Vitro Percutaneous Penetration Studies: Comparison with Human Skin Pharm.
Method of Conducting In-Vitro Skin Diffusion Experiments in Horizontal Diffusion Cells
A modified stainless steel flow-through diffusion cell assembly based on that first shown by Cooper in J. Pharm. Sci. 73, 1984, was used to perform the experiments on diffusion of the drugs from various donor compositions through snake skin.
Topical formulations are weighed out onto the skin substrate which has an area of 0.79 cm^2. Active substance penetrates through the skin and into the receptor solution in the bottom section of the cell. Inlet and outlet tubes connected to the receptor chamber maintain skin conditions.
The temperature of the skin was maintained at 32° C.
The receptor solution consisted of 50% propylene glycol in water, made isotonic with 0.9% sodium chloride and preserved with 0.1% sodium azide.
The concentration of applied drug in each diffusion cell sample was measured using high pressure liquid chromatography (HPLC) and absorbance detection. The results reported for each experiment are average values of the replicate diffusion cells. […]

| Compound | activity of clotrimazole in the gel film against C. albicans (Candida albicans) | penetration / rate of release of Ketoprofen into the skin (FIG. 3) ([1]; Example 3, varying level of Dermacryl 79) | penetration of ketoprofen (FIG. 5) ([1]; Example 8, different hydrophobic polymers) |
| --- | --- | --- | --- |
| Clc1ccccc1C(c1ccccc1)(c1ccccc1)n1ccnc1 [clotrimazole] | biologically active within the film according to the invention and in fact is more active than the commercial clotrimazole cream; also recorded: could be increased by addition of a plasticiser ie., propylene glycol | – | – |
| CC(C(=O)O)c1cccc(C(=O)c2ccccc2)c1 (stereo not drawn) [Ketoprofen, ketoprofen] | – | the rate of the release of Ketoprofen into the skin of the subject can be varied | can be controlled through the incorporation of hydrophobic polymers |
